Where two headings read alike, the source gives them in different places.
Assays:
[1] = system: sulprostone-induced allodynia in mice; assay: Sulprostone-induced allodynia mouse model, paint brush pain score; format: in vivo
Procedure: Alternatively, allodynia can be induced in mice through intrathecal treatment of the animals with 200 ng sulprostone (prostaglandin E2 receptor agonist) in 50% DMSO and in a volume of 5 μl. In this model, the pain response to stroking the flank with a paint brush is scored 8 times over a 35 minute period starting 15 minutes following spinal administration of sulprostone. Minami et al., 57 Pain 217-223 (1994).
The compounds are formulated in approximately 0.01-5% DMSO and given in a volume of 1 ml/kg body weight for systemic dosing or 5 μl in saline for intrathecal dosing. Clonidine is tested at intrathecal doses ranging between 0.01 and 10.0 μg.
Amitriptylene is dissolved in 50% DMSO at the indicated doses and injected in a volume of 5 ul intrathecally into each mouse, in conjunction with either a 30 ug/kg IP injection of 5-methylurapadil or with a similar injection of saline.
Experimental procedure is the same as in Example 1, except both clonidine (various doses) and 5-methylurapidil (1 microgram intrathecal) are coadministered by intrathecal injection in a 50% DMSO vehicle and in a total volume of 5 microliters.

[2] = system: intraocular pressure of rabbit eyes; assay: Normotensive intraocular pressure in rabbit eyes after topical instillation (pneumatonometer); format: in vivo, New Zealand rabbits
Procedure: Male New Zealand rabbits are used to evaluate drug effects on normotensive IOP measurements. The rabbits are carefully handled so as to minimize excitement. They should be picked up by the nape of the neck, with their hindlegs supported by the other hand. After removing the rabbit from its cage, approximately 25 ul of dilute Ophthetic® (0.05%) topical anesthesia is administered to each eye. An initial IOP determination is made in both eyes. Rabbits with 3 mmHg or greater difference in IOP between right and left eyes are replaced at this time.
Immediately following the time zero (T=0) reading in both eyes, one eye of each experimental rabbit is instilled with an ophthalmic formulation of 0.1% (w/w) brimonidine tartrate onto the cornea of the randomly selected test eye. […] The other eye is given the vehicle containing no drug. The ophthalmic formulations comprise 50 ppm Purite® (stabilized chlorine dioxide), 0.5% carboxymethylcellulose, 0.6% (w/w) borate buffer (pH 7.7) and small amounts of salts (NaCl, KCl, CaCl2, MgCl2). Intraocular pressure of both treated (ipsalateral)and untreated (contralateral) eyes is measured at the indicated time intervals for seven hours. Pressure readings utilize a Model 30 Classic™ Pneumatonometer as the measuring and recording instrument. It measures intraocular pressure (IOP) non-invasively through applanation tonometry.

[3] = system: Chung model of allodynic rats
Source text: A model for chronic pain (in particular peripheral neuropathy) involves the surgical ligation of the L5 (and optionally the L6) spinal nerves on one side in experimental animals. Rats recovering from the surgery gain weight and display a level of general activity similar to that of normal rats. However, these rats develop abnormalities of the foot, wherein the hindpaw is moderately everted and the toes are held together. More importantly, the hindpaw on the side affected by the surgery appears to become sensitive to pain from low-threshold mechanical stimuli, such as that producing a faint sensation of touch in a human, within about 1 week following surgery. This sensitivity to normally non-painful touch is called “tactile allodynia” and lasts for at least two months. The response includes lifting the affected hindpaw to escape from the stimulus, licking the paw and holding it in the air for many seconds. None of these responses is normally seen in the control group.
Rats are anesthetized before surgery. The surgical site is shaved and prepared either with betadine or novacaine. Incision is made from the thoracic vertebra X111 down toward the sacrum. Muscle tissue is separated from the spinal vertebra (left side) at the L4-S2 levels. The L6 vertebra is located and the transverse process is carefully removed with a small rongeur to expose the L4-L6 spinal nerves. The L5 and L6 spinal nerves are isolated and tightly ligated with 6-0 silk thread. The same procedure is done on the right side as a control, except no ligation of the spinal nerves is performed.
A complete hemostasis is confirmed, then the wounds are sutured. A small amount of antibiotic ointment is applied to the incised area, and the rat is transferred to the recovery plastic cage under a regulated heat-temperature lamp. […]
In the Chung rat model, tactile allodynia is measured prior to and 30 minutes after drug administration using von Frey hairs that are a series of fine hairs with incremental differences in stiffness. […]

[4] = system: male Sprague-Dawley rats; conditions: graded 30 minutes after administration
Procedure: (§1) To test sedation, six male Sprague-Dawley rats are given various doses of a clonidine intrathecal injection. Sedation is graded 30 minutes following administration of the drug by monitoring locomotor skills as follows. Rats are placed in a dark covered chamber and a digicom analyzer (Omnitech Electronic) quantitates their exploratory behavior for a five-minute period. The machine records each time the rat interrupts an array of 32 photoelectric beams in the X and Y orientation, and quantifies the difference in behavior as compared to control animals given saline instead of clonidine.

[5] = system: sedation; assay: Clonidine sedative activity dose response with or without 5-methylurapadil (FIG. 2); conditions: co-administration of 5-methyl urapidil 30 μg/kg intraperitoneal vs clonidine alone
Procedure: as §1

[6] = 0.1% brimonidine and 0.003% prazosin, FIG. 4D
[7] = 35 microliters 0.003% prazosin instilled, FIG. 4A

Structure (SMILES): CN(C)CCC=C1c2ccccc2CCc2ccccc21 [Amitriptylene, amitriptylene]
- reduction in the dosage necessary to achieve maximal analgesia ([1]; amitriptylene intrathecal with 30 ug/kg IP 5-methylurapadil vs with saline): approximately three

Structure (SMILES): Brc1c(NC2=NCCN2)ccc2nccnc12 [brimonidine]
- lowering of intraocular pressure ([2]; 0.1% brimonidine alone, after the first 30 minutes, FIG. 4B): ~30%
- initial change in intraocular pressure ([2]; 0.1% brimonidine alone, within the first 30 minutes, FIG. 4B): pronounced increase
- initial change in intraocular pressure [2, 6]: only a very small increase
- peak IOP lowering [2, 6]: approximately 40%
- difference in intraocular pressure response vs brimonidine alone ([2]; co-installation of 0.1% brimonidine and 0.001% prazosin, FIG. 4C): Little difference

Structure (SMILES): Clc1cccc(Cl)c1N=C1NCCN1 [clonidine]
- analgesia ([3]; intrathecal dose of 0.1 μg, allodynic rats): no analgesia
- analgesia ([3]; intrathecal dose of 1.0 μg, allodynic rats): maximal analgesia
- analgesia ([3]; rats, dose-dependence statement): analgesic
- sedation ([4]; intrathecal dose of 3.0 μg): mildly sedating
- sedation ([4]; intrathecal dose of 10 μg): maximal sedation
- shift of the effective analgesic dose lower vs clonidine alone ([1]; 5-methyl urapidil 30 μg/kg intraperitoneal 5 minutes before clonidine): 10 fold
- analgesia ([1]; clonidine 0.1 microgram intrathecal in the absence of prazosin): not analgesic
- analgesic results compared with intraperitoneal injection of the alpha 1 antagonist ([1]; clonidine (various doses) and 5-methylurapidil 1 microgram coadministered intrathecally): substantially similar
- decrease in the EC50 for clonidine vs i.t. clonidine alone ([1]; coadministration of prazosin 100 ng/kg intraperitoneal): four
- analgesia ([1]; mice, dose-dependence statement): analgesic
- sedating dose [5]: unchanged

Structure (SMILES): COc1cc2nc(N3CCN(C(=O)c4ccco4)CC3)nc(N)c2cc1OC [prazosin]
- intraocular pressure compared to the untreated eye [2, 7]: small initial drop
- return to baseline pressure [2, 7]: 2 h

— patent US20050059744A1, “Methods and compositions for the treatment of pain and other alpha 2 adrenergic-mediated conditions” (Allergan, Inc., priority 2003, published 2005)
